Columns and labels:
[1] = tested on: Phakopsora pachyrhizi (F129L); assay: Protective control of soybean rust on soybeans (PHAKPA P6); type: in vivo; conditions: soybean rust F129L isolate; for % PHAKPA (F129L) Disease level P6 at 4 ppm: protective P6, 4 ppm; for % PHAKPA (F129L) Disease level P6 at 16 ppm: protective P6, 16 ppm
[2] = tested on: Phakopsora pachyrhizi (F129L); assay: Protective control of soybean rust on soybeans (PHAKPA P2); type: in vivo; conditions: soybean rust F129L isolate; for % PHAKPA (F129L) Disease level P2 at 4 ppm: protective P2, 4 ppm; for % PHAKPA (F129L) Disease level P2 at 16 ppm: protective P2, 16 ppm

SMILES | % PHAKPA (F129L) Disease level P6 at 4 ppm [1] [%] | % PHAKPA (F129L) Disease level P6 at 16 ppm [1] [%] | % PHAKPA (F129L) Disease level P2 at 4 ppm [2] [%] | % PHAKPA (F129L) Disease level P2 at 16 ppm [2] [%]
CO/N=C(/C(=O)OC)c1cccc(C)c1CO/N=C(\C)c1cc(F)ccc1C(F)(F)F [compound 249] | 90 | 43 | 87 | 37
CO/N=C(/C(=O)OC)c1cccc(C)c1CO/N=C(\CC(F)(F)F)c1cccc(C(F)(F)F)c1 [compound 250] | 90 | 80 | 90 | 90
CO/N=C(/C(=O)OC)c1cccc(C)c1CO/N=C(\C)c1cc(Cl)ccc1C(F)(F)F [compound 251] | 80 | 80 | 80 | 80
CNC(=O)/C(=N/OC)c1cccc(C)c1CO/N=C(\C)c1ccccc1OC(F)F [compound 252] | 87 | 32 | 50 | 3
CO/N=C(/C(=O)OC)c1cccc(C)c1CO/N=C(\C)c1ccccc1OC(F)F [compound 253] | 100 | 57 | 100 | 87
CO/N=C(/C(=O)OC)c1cccc(C)c1CO/N=C(\C)c1cc(F)ccc1Br [compound 254] | 100 | 100 | 100 | 77
CNC(=O)/C(=N/OC)c1cccc(C)c1CO/N=C(\CC(F)(F)F)c1cc(Cl)cc(Cl)c1 [compound 255] | 100 | 87 | 97 | 83
CO/N=C(/C(=O)OC)c1cccc(C)c1CO/N=C(\C)c1ccc(F)cc1Cl [compound 256] | 70 | 20 | 50 | 18
CO/N=C(/C(=O)OC)c1cccc(C)c1CO/N=C(\C)c1ccc(Br)cc1C(F)(F)F [compound 257] | 100 | 57 | 93 | 35
CNC(=O)/C(=N/OC)c1cccc(C)c1CO/N=C(\C)c1ccc(Br)cc1C(F)(F)F [compound 258] | 73 | 8 | 32 | 7
CO/N=C(/C(=O)OC)c1cccc(C)c1CO/N=C(\C)c1ccc(OC(F)(F)F)cc1C [compound 259] | 93 | 40 | 80 | 17
CNC(=O)/C(=N/OC)c1cccc(C)c1CO/N=C(\C)c1ccc(F)cc1C(F)(F)F [compound 260] | 22 | 0 | 22 | 0
CNC(=O)/C(=N/OC)c1cccc(C)c1CO/N=C(\C)c1ccc(OC(F)(F)F)cc1C [compound 261] | 87 | 32 | 70 | 9
CNC(=O)/C(=N/OC)c1cccc(C)c1CO/N=C(\C)c1ccc(F)cc1Cl [compound 262] | 47 | 4 | 63 | 1

From patent US20230172206A1 (BASF SE, priority 2020, published 2023)
